Source: ChEMBL document CHEMBL1671810, “Identification of a novel scaffold for allosteric inhibition of wild type and drug resistant HIV-1 reverse transcriptase by fragment library screening” (J Med Chem, 2011)
pIC50, pKd: −log10 of the molar value. Activity calls are given as the source filed them. No cut-off for these calls is given here.

Key:
[1] = Binding affinity to wild type HIV1 BH10 isolate reverse transcriptase expressed in Escherichia coli BL21(DE3); design: species or system Human immunodeficiency virus type 1 BH10
[2] = target: T1, Human immunodeficiency virus type 1 reverse transcriptase (Human immunodeficiency virus 1, UniProt Q72547, K103N); assay: Binding affinity to HIV1 BH10 isolate reverse transcriptase K103N mutant expressed in Escherichia coli BL21(DE3); design: species or system Human immunodeficiency virus type 1 BH10
[3] = target: T2, Human immunodeficiency virus type 1 reverse transcriptase (Human immunodeficiency virus 1, UniProt Q72547, Y181C); assay: Binding affinity to HIV1 BH10 isolate reverse transcriptase Y181C mutant expressed in Escherichia coli BL21(DE3); design: species or system Human immunodeficiency virus type 1 BH10
[4] = target: T3, Human immunodeficiency virus type 1 reverse transcriptase (Human immunodeficiency virus 1, UniProt Q72547, L100I); assay: Binding affinity to HIV1 BH10 isolate reverse transcriptase L100I mutant expressed in Escherichia coli BL21(DE3); design: species or system Human immunodeficiency virus type 1 BH10
[5] = Inhibition of wild type HIV1 BH10 isolate reverse transcriptase catalytic activity expressed in Escherichia coli BL21(DE3) by UV-vis spectrophotometry; design: species or system Human immunodeficiency virus type 1 BH10
[6] = system: Human immunodeficiency virus type 1 BH10; assay: Displacement of nevirapine from wild type HIV1 BH10 isolate reverse transcriptase expressed in Escherichia coli BL21(DE3) by competition assay
[7] = target: T1, Human immunodeficiency virus type 1 reverse transcriptase; assay: Inhibition of HIV1 BH10 isolate reverse transcriptase K103N mutant catalytic activity expressed in Escherichia coli BL21(DE3) by UV-vis spectrophotometry; design: species or system Human immunodeficiency virus type 1 BH10
[8] = target: T2, Human immunodeficiency virus type 1 reverse transcriptase; assay: Inhibition of HIV1 BH10 isolate reverse transcriptase Y181C mutant catalytic activity expressed in Escherichia coli BL21(DE3) by UV-vis spectrophotometry; design: species or system Human immunodeficiency virus type 1 BH10
[9] = target: T3, Human immunodeficiency virus type 1 reverse transcriptase; assay: Inhibition of HIV1 BH10 isolate reverse transcriptase L100I mutant catalytic activity expressed in Escherichia coli BL21(DE3) by UV-vis spectrophotometry; design: species or system Human immunodeficiency virus type 1 BH10

SMILES	pKd [1]	pKd [2]	pKd [3]	pKd [4]	pIC50 [5]	Activity [6]	pIC50 [7]	pIC50 [8]	pIC50 [9]
O=C(c1ccncc1)c1ccc(Cl)cc1	< 3.30	3.22	3.15	4.22	4.02				
Nc1cccc(-c2ccccc2)n1						inactive			
Cc1ccc(O)cc1						inactive			
C/C(=N\O)c1ccc2c(c1)CCC2	3.52	4.30	4.30	3.70	4.41				
Cc1cc2c(cc1[N+](=O)[O-])OCO2	4.10	4.70	4.00	4.40	3.82				
O=C1CCc2c(Br)cccc21	3.57	4.70	4.40	4.40	5.40		4.80	4.80	4.60
COC(=O)C1=C(C)NC(=S)NC1C (stereo not given)	3.42		3.15		3.24				
CCCCCCCCNC(=O)NCc1ccc(O)c(CO)c1	3.72								
C=CCNc1scnc1S(=O)(=O)c1ccccc1	3.68	3.15	3.70	4.05	5.30				
CC(C)N1CCC(CCc2c[nH]cn2)CC1	4.06								
O=C1c2ccccc2CCc2ncccc21	3.74	4.30	3.52	3.70	3.37				
